Assay: xn = mol fraction of the nth substance listed
Conditions: for speed of sound: 100 kPa, Frequency=3 MHz, Sing-around technique in a fixed-path interferometer; for speed of sound / viscosity / mass density: Liquid; for viscosity / mass density: 102 kPa; for viscosity: Concentric cylinders viscometry; for mass density: Vibrating tube method; for surface tension liquid-gas: 294.5 K, Pendant drop shape

CCCCc1ccccc1 [butylbenzene] + CCCCCCCCCCCCCCCC
Conditions | mass density [kg/m3] | speed of sound [m/s] | viscosity [mPa·s]
293.15 K, x1 = 0.1586 | 780.89 | 1353.2 | 2.92
293.15 K, x1 = 0.2971 | 788.51 | 1350.1 | 2.5
293.15 K, x1 = 0.4067 | 795.49 | 1347.8 | 2.21
293.15 K, x1 = 0.5293 | 804.56 | 1346 | 1.91
293.15 K, x1 = 0.6278 | 813.07 | 1345 | 1.69
293.15 K, x1 = 0.7158 | 821.75 | 1345.1 | 1.52
293.15 K, x1 = 0.7981 | 831.1 | 1346.3 | 1.36
293.15 K, x1 = 0.8709 | 840.48 | 1347.8 | 1.23
293.15 K, x1 = 0.938 | 850.32 | 1350.4 | 1.12
293.15 K, x1 = 1 | 860.51 | 1353.7 | 1.05
303.15 K, x1 = 0.1586 | 773.89 | 1316.1 | 2.35
303.15 K, x1 = 0.2971 | 781.43 | 1313 | 2.05
303.15 K, x1 = 0.4067 | 788.33 | 1310.7 | 1.83
303.15 K, x1 = 0.5293 | 797.29 | 1308.8 | 1.6
303.15 K, x1 = 0.6278 | 805.7 | 1307.7 | 1.43
303.15 K, x1 = 0.7158 | 814.27 | 1307.6 | 1.29
303.15 K, x1 = 0.7981 | 823.49 | 1308.5 | 1.17
303.15 K, x1 = 0.8709 | 832.73 | 1309.7 | 1.06
303.15 K, x1 = 0.938 | 842.44 | 1312 | 0.976
303.15 K, x1 = 1 | 852.49 | 1314.9 | 0.91
313.15 K, x1 = 0.1586 | 766.88 | 1279.5 | 1.94
313.15 K, x1 = 0.2971 | 774.34 | 1276.4 | 1.71
313.15 K, x1 = 0.4067 | 781.16 | 1274.1 | 1.54
313.15 K, x1 = 0.5293 | 790 | 1272.1 | 1.36
313.15 K, x1 = 0.6278 | 798.3 | 1270.8 | 1.23
313.15 K, x1 = 0.7158 | 806.75 | 1270.5 | 1.11
313.15 K, x1 = 0.7981 | 815.84 | 1271.1 | 1.01
313.15 K, x1 = 0.8709 | 824.96 | 1272.1 | 0.932
313.15 K, x1 = 0.938 | 834.53 | 1274 | 0.859
313.15 K, x1 = 1 | 844.43 | 1276.6 | 0.801
323.15 K, x1 = 0.1586 | 759.88 | 1243.6 | 1.62
323.15 K, x1 = 0.2971 | 767.24 | 1240.4 | 1.44
323.15 K, x1 = 0.4067 | 773.97 | 1238 | 1.31
323.15 K, x1 = 0.5293 | 782.69 | 1235.9 | 1.17
323.15 K, x1 = 0.6278 | 790.88 | 1234.4 | 1.06
323.15 K, x1 = 0.7158 | 799.21 | 1233.9 | 0.972
323.15 K, x1 = 0.7981 | 808.17 | 1234.3 | 0.891
323.15 K, x1 = 0.8709 | 817.16 | 1235 | 0.822
323.15 K, x1 = 0.938 | 826.58 | 1236.6 | 0.761
323.15 K, x1 = 1 | 836.34 | 1238.7 | 0.713
333.15 K, x1 = 0.1586 | 752.86 | 1208.2 | 1.37
333.15 K, x1 = 0.2971 | 760.13 | 1204.9 | 1.24
333.15 K, x1 = 0.4067 | 766.76 | 1202.5 | 1.13
333.15 K, x1 = 0.5293 | 775.36 | 1200.2 | 1.02
333.15 K, x1 = 0.6278 | 783.43 | 1198.6 | 0.929
333.15 K, x1 = 0.7158 | 791.64 | 1197.8 | 0.856
333.15 K, x1 = 0.7981 | 800.47 | 1197.9 | 0.787
333.15 K, x1 = 0.8709 | 809.32 | 1198.3 | 0.731
333.15 K, x1 = 0.938 | 818.61 | 1199.6 | 0.68
333.15 K, x1 = 1 | 828.21 | 1201.4 | 0.636
343.15 K, x1 = 0.1586 | 745.8 | – | 1.18
343.15 K, x1 = 0.2971 | 752.9 | – | 1.07
343.15 K, x1 = 0.4067 | 759.5 | – | 0.986
343.15 K, x1 = 0.5293 | 767.9 | – | 0.893
343.15 K, x1 = 0.6278 | 775.9 | – | 0.821
343.15 K, x1 = 0.7158 | 783.9 | – | 0.757
343.15 K, x1 = 0.7981 | 792.7 | – | 0.702
343.15 K, x1 = 0.8709 | 801.4 | – | 0.653
343.15 K, x1 = 0.938 | 810.6 | – | 0.61
343.15 K, x1 = 1 | 819.9 | – | 0.571
353.15 K, x1 = 0.1586 | 738.8 | – | 1.03
353.15 K, x1 = 0.2971 | 745.8 | – | 0.939
353.15 K, x1 = 0.4067 | 752.3 | – | 0.868
353.15 K, x1 = 0.5293 | 760.5 | – | 0.792
353.15 K, x1 = 0.6278 | 768.4 | – | 0.731
353.15 K, x1 = 0.7158 | 776.2 | – | 0.677
353.15 K, x1 = 0.7981 | 784.9 | – | 0.63
353.15 K, x1 = 0.8709 | 793.5 | – | 0.588
353.15 K, x1 = 0.938 | 802.5 | – | 0.55
353.15 K, x1 = 1 | 811.7 | – | 0.516
363.15 K, x1 = 0.1586 | 731.6 | – | 0.91
363.15 K, x1 = 0.2971 | 738.6 | – | 0.833
363.15 K, x1 = 0.4067 | 744.9 | – | 0.773
363.15 K, x1 = 0.5293 | 753.1 | – | 0.708
363.15 K, x1 = 0.6278 | 760.8 | – | 0.656
363.15 K, x1 = 0.7158 | 768.5 | – | 0.61
363.15 K, x1 = 0.7981 | 777.1 | – | 0.569
363.15 K, x1 = 0.8709 | 785.4 | – | 0.532
363.15 K, x1 = 0.938 | 794.3 | – | 0.5
363.15 K, x1 = 1 | 803.4 | – | 0.469
373.15 K, x1 = 0.1586 | 724.5 | – | 0.811
373.15 K, x1 = 0.2971 | 731.3 | – | 0.746
373.15 K, x1 = 0.4067 | 737.5 | – | 0.695
373.15 K, x1 = 0.5293 | 745.5 | – | 0.639
373.15 K, x1 = 0.6278 | 753.1 | – | 0.594
373.15 K, x1 = 0.7158 | 760.8 | – | 0.553
373.15 K, x1 = 0.7981 | 769.1 | – | 0.517
373.15 K, x1 = 0.8709 | 777.5 | – | 0.484
373.15 K, x1 = 0.938 | 786.1 | – | 0.456
373.15 K, x1 = 1 | 795 | – | 0.43

Conditions | surface tension liquid-gas [mN/m]
x1 = 0.1586 | 27.5
x1 = 0.2971 | 27.3
x1 = 0.4067 | 27.6
x1 = 0.5293 | 27.8
x1 = 0.6278 | 27.9
x1 = 0.7158 | 28
x1 = 0.7981 | 28.2
x1 = 0.8709 | 28.4
x1 = 0.938 | 28.7

Source: the NIST ThermoML archive (doi:10.1021/acs.jced.6b00542)
